From ChEMBL document CHEMBL5724806, “Unraveling interindividual differences and functional consequences of gut microbial metabolism of immunosuppressants” (2024)

How the values were obtained:
Format in all cases: ADME
[1] = The drug is tested on Bifidobacterium longum strain: DSM20088 for biotransformation under microaerobic condition. The drug concentrations were measured over 6 timepoints collected between 0 and 12 hours of incubation by liquid-chromatography-coupled mass spectrometry (LC–MS); parameters: dose 5 uM, timepoint 0, 1.5, 3, 6, 9, 12 hours; conditions: 5 µM
[2] = The drug is tested on Gemella morbillorum strain: DSM20572 for biotransformation under microaerobic condition. The drug concentrations were measured over 6 timepoints collected between 0 and 12 hours of incubation by liquid-chromatography-coupled mass spectrometry (LC–MS); parameters: dose 5 uM, timepoint 0, 1.5, 3, 6, 9, 12 hours; conditions: 5 µM
[3] = The drug is tested on Bacteroides thetaiotaomicron strain: DSM2079 for biotransformation under anaerobic condition. The drug concentrations were measured over 6 timepoints collected between 0 and 12 hours of incubation by liquid-chromatography-coupled mass spectrometry (LC–MS); parameters: dose 5 uM, timepoint 0, 1.5, 3, 6, 9, 12 hours; conditions: 5 µM
[4] = The drug is tested on Actinomyces naeslundi strain: DSM43013 for biotransformation under microaerobic condition. The drug concentrations were measured over 6 timepoints collected between 0 and 12 hours of incubation by liquid-chromatography-coupled mass spectrometry (LC–MS); parameters: dose 5 uM, timepoint 0, 1.5, 3, 6, 9, 12 hours; conditions: actinomyces naeslundii, 5 µM
[5] = The drug is tested on Streptococcus anginosus strain: DSM20563 for biotransformation under microaerobic condition. The drug concentrations were measured over 6 timepoints collected between 0 and 12 hours of incubation by liquid-chromatography-coupled mass spectrometry (LC–MS); parameters: dose 5 uM, timepoint 0, 1.5, 3, 6, 9, 12 hours; conditions: 5 µM
[6] = The drug is tested on the gut metagenome community of T-05 with ENA study accession number: PRJEB31790 for biotransformation under anaerobic condition. The drug concentrations were measured over 7 timepoints collected between 0 and 12 hours of incubation by liquid-chromatography-coupled mass spectrometry (LC–MS); parameters: dose 5 uM, timepoint 0, 0.75, 1.5, 3, 6, 9, 12 hours; conditions: 5 µM
[7] = The drug is tested on Lactobacillus paracasei strain: ATCC27092 for biotransformation under microaerobic condition. The drug concentrations were measured over 6 timepoints collected between 0 and 12 hours of incubation by liquid-chromatography-coupled mass spectrometry (LC–MS); parameters: dose 5 uM, timepoint 0, 1.5, 3, 6, 9, 12 hours; conditions: lacticaseibacillus paracasei, 5 µM
[8] = The drug is tested on Escherichia coli strain: DSM27469 for biotransformation under anaerobic condition. The drug concentrations were measured over 6 timepoints collected between 0 and 12 hours of incubation by liquid-chromatography-coupled mass spectrometry (LC–MS); parameters: dose 5 uM, timepoint 0, 1.5, 3, 6, 9, 12 hours; conditions: 5 µM
[9] = The drug is tested on Bacteroides caccae strain: DSM19024 for biotransformation under anaerobic condition. The drug concentrations were measured over 6 timepoints collected between 0 and 12 hours of incubation by liquid-chromatography-coupled mass spectrometry (LC–MS); parameters: dose 5 uM, timepoint 0, 1.5, 3, 6, 9, 12 hours; conditions: 5 µM
[10] = The drug is tested on the gut metagenome community of P-04 with ENA study accession number: PRJEB31790 for biotransformation under microaerobic condition. The drug concentrations were measured over 7 timepoints collected between 0 and 12 hours of incubation by liquid-chromatography-coupled mass spectrometry (LC–MS); parameters: dose 5 uM, timepoint 0, 0.75, 1.5, 3, 6, 9, 12 hours; conditions: 5 µM
[11] = The drug is tested on Clostridium bolteae strain: DSM15670 for biotransformation under anaerobic condition. The drug concentrations were measured over 6 timepoints collected between 0 and 12 hours of incubation by liquid-chromatography-coupled mass spectrometry (LC–MS); parameters: dose 5 uM, timepoint 0, 1.5, 3, 6, 9, 12 hours; conditions: enterocloster bolteae, 5 µM
[12] = The drug is tested on Bacteroides stercoris strain: HM 1036 for biotransformation under anaerobic condition. The drug concentrations were measured over 6 timepoints collected between 0 and 12 hours of incubation by liquid-chromatography-coupled mass spectrometry (LC–MS); parameters: dose 5 uM, timepoint 0, 1.5, 3, 6, 9, 12 hours; conditions: 5 µM
[13] = The drug is tested on Streptococcus salivarius strain: DSM20560 for biotransformation under anaerobic condition. The drug concentrations were measured over 6 timepoints collected between 0 and 12 hours of incubation by liquid-chromatography-coupled mass spectrometry (LC–MS); parameters: dose 5 uM, timepoint 0, 1.5, 3, 6, 9, 12 hours; conditions: 5 µM
[14] = The drug is tested on Dorea formicigenerans strain: DSM3992 for biotransformation under anaerobic condition. The drug concentrations were measured over 6 timepoints collected between 0 and 12 hours of incubation by liquid-chromatography-coupled mass spectrometry (LC–MS); parameters: dose 5 uM, timepoint 0, 1.5, 3, 6, 9, 12 hours; conditions: 5 µM
[15] = The drug is tested on Bifidobacterium longum strain: DSM20088 for biotransformation under anaerobic condition. The drug concentrations were measured over 6 timepoints collected between 0 and 12 hours of incubation by liquid-chromatography-coupled mass spectrometry (LC–MS); parameters: dose 5 uM, timepoint 0, 1.5, 3, 6, 9, 12 hours; conditions: 5 µM
[16] = The drug is tested on the gut metagenome community of A-02 with ENA study accession number: PRJEB31790 for biotransformation under anaerobic condition. The drug concentrations were measured over 7 timepoints collected between 0 and 12 hours of incubation by liquid-chromatography-coupled mass spectrometry (LC–MS); parameters: dose 5 uM, timepoint 0, 0.75, 1.5, 3, 6, 9, 12 hours; conditions: 5 µM
[17] = The drug is tested on Clostridium scindens strain: DSM5676 for biotransformation under anaerobic condition. The drug concentrations were measured over 6 timepoints collected between 0 and 12 hours of incubation by liquid-chromatography-coupled mass spectrometry (LC–MS); parameters: dose 5 uM, timepoint 0, 1.5, 3, 6, 9, 12 hours; conditions: 5 µM
[18] = The drug is tested on the gut metagenome community of A-05 with ENA study accession number: PRJEB31790 for biotransformation under microaerobic condition. The drug concentrations were measured over 7 timepoints collected between 0 and 12 hours of incubation by liquid-chromatography-coupled mass spectrometry (LC–MS); parameters: dose 5 uM, timepoint 0, 0.75, 1.5, 3, 6, 9, 12 hours; conditions: 5 µM
[19] = The drug is tested on the gut metagenome community of P-03 with ENA study accession number: PRJEB31790 for biotransformation under microaerobic condition. The drug concentrations were measured over 7 timepoints collected between 0 and 12 hours of incubation by liquid-chromatography-coupled mass spectrometry (LC–MS); parameters: dose 5 uM, timepoint 0, 0.75, 1.5, 3, 6, 9, 12 hours; conditions: 5 µM
[20] = The drug is tested on the gut metagenome community of A-07 with ENA study accession number: PRJEB31790 for biotransformation under anaerobic condition. The drug concentrations were measured over 7 timepoints collected between 0 and 12 hours of incubation by liquid-chromatography-coupled mass spectrometry (LC–MS); parameters: dose 5 uM, timepoint 0, 0.75, 1.5, 3, 6, 9, 12 hours; conditions: 5 µM
[21] = The drug is tested on Lactobacillus gasseri strain: DSM20243 for biotransformation under anaerobic condition. The drug concentrations were measured over 6 timepoints collected between 0 and 12 hours of incubation by liquid-chromatography-coupled mass spectrometry (LC–MS); parameters: dose 5 uM, timepoint 0, 1.5, 3, 6, 9, 12 hours; conditions: 5 µM
[22] = The drug is tested on Gemella haemolysans strain: DSM107751 for biotransformation under anaerobic condition. The drug concentrations were measured over 6 timepoints collected between 0 and 12 hours of incubation by liquid-chromatography-coupled mass spectrometry (LC–MS); parameters: dose 5 uM, timepoint 0, 1.5, 3, 6, 9, 12 hours; conditions: 5 µM
[23] = The drug is tested on Parabacteroides distasonis strain: DSM20701 for biotransformation under anaerobic condition. The drug concentrations were measured over 6 timepoints collected between 0 and 12 hours of incubation by liquid-chromatography-coupled mass spectrometry (LC–MS); parameters: dose 5 uM, timepoint 0, 1.5, 3, 6, 9, 12 hours; conditions: 5 µM
[24] = The drug is tested on Clostridium ramosum strain: DSM1402 for biotransformation under anaerobic condition. The drug concentrations were measured over 6 timepoints collected between 0 and 12 hours of incubation by liquid-chromatography-coupled mass spectrometry (LC–MS); parameters: dose 5 uM, timepoint 0, 1.5, 3, 6, 9, 12 hours; conditions: thomasclavelia ramosa, 5 µM
[25] = The drug is tested on Blautia hansenii strain: DSM20583 for biotransformation under anaerobic condition. The drug concentrations were measured over 6 timepoints collected between 0 and 12 hours of incubation by liquid-chromatography-coupled mass spectrometry (LC–MS); parameters: dose 5 uM, timepoint 0, 1.5, 3, 6, 9, 12 hours; conditions: 5 µM
[26] = The drug is tested on Streptococcus mitis strain: DSM12643 for biotransformation under microaerobic condition. The drug concentrations were measured over 6 timepoints collected between 0 and 12 hours of incubation by liquid-chromatography-coupled mass spectrometry (LC–MS); parameters: dose 5 uM, timepoint 0, 1.5, 3, 6, 9, 12 hours; conditions: 5 µM

Structure (SMILES) | Bacterial Biotransformation [1] | Bacterial Biotransformation [2] | Bacterial Biotransformation [3] | Bacterial Biotransformation [4] | Bacterial Biotransformation [5] | Bacterial Biotransformation [6] | Bacterial Biotransformation [7] | Bacterial Biotransformation [8] | Bacterial Biotransformation [9] | Bacterial Biotransformation [10] | Bacterial Biotransformation [11] | Bacterial Biotransformation [12] | Bacterial Biotransformation [13] | Bacterial Biotransformation [14] | Bacterial Biotransformation [15] | Bacterial Biotransformation [16] | Bacterial Biotransformation [17] | Bacterial Biotransformation [18] | Bacterial Biotransformation [19] | Bacterial Biotransformation [20] | further results
C[C@H]1C[C@H]2[C@@H]3CCC4=CC(=O)C=C[C@]4(C)[C@@]3(F)[C@@H](O)C[C@]2(C)[C@@]1(O)C(=O)CO [BETAMETHASONE] | Compound NOT metabolized | Compound NOT metabolized | Compound NOT metabolized | Compound NOT metabolized | Compound NOT metabolized | Compound NOT metabolized | Compound NOT metabolized | Compound NOT metabolized | Compound NOT metabolized | Compound NOT metabolized | Compound NOT metabolized | Compound NOT metabolized | Compound NOT metabolized | Compound NOT metabolized | Compound NOT metabolized | Compound metabolized | Compound metabolized | Compound NOT metabolized | Compound NOT metabolized | Compound metabolized | Bacterial Biotransformation [21]: Compound NOT metabolized; Bacterial Biotransformation [22]: Compound NOT metabolized; Bacterial Biotransformation [23]: Compound NOT metabolized; Bacterial Biotransformation [24]: Compound NOT metabolized; Bacterial Biotransformation [25]: Compound NOT metabolized; Bacterial Biotransformation [26]: Compound NOT metabolized
CCCC1O[C@@H]2C[C@H]3[C@@H]4CCC5=CC(=O)C=C[C@]5(C)[C@H]4[C@@H](O)C[C@]3(C)[C@]2(C(=O)CO)O1 (stereo partly drawn) [BUDESONIDE] | Compound NOT metabolized | Compound NOT metabolized | Compound NOT metabolized | Compound NOT metabolized | Compound NOT metabolized | Compound NOT metabolized | Compound NOT metabolized | Compound NOT metabolized | Compound NOT metabolized | Compound NOT metabolized | Compound NOT metabolized | Compound NOT metabolized | Compound NOT metabolized | Compound NOT metabolized | Compound NOT metabolized | Compound NOT metabolized | Compound NOT metabolized | Compound metabolized | Compound NOT metabolized | Compound metabolized | Bacterial Biotransformation [21]: Compound NOT metabolized; Bacterial Biotransformation [22]: Compound NOT metabolized; Bacterial Biotransformation [23]: Compound NOT metabolized; Bacterial Biotransformation [24]: Compound NOT metabolized; Bacterial Biotransformation [25]: Compound NOT metabolized; Bacterial Biotransformation [26]: Compound NOT metabolized
C[C@]12CCC(=O)C=C1CC[C@@H]1[C@@H]2C(=O)C[C@@]2(C)[C@H]1CC[C@]2(O)C(=O)CO [CORTISONE] | Compound NOT metabolized | Compound NOT metabolized | Compound NOT metabolized | Compound NOT metabolized | Compound NOT metabolized | Compound metabolized | Compound NOT metabolized | Compound NOT metabolized | Compound NOT metabolized | Compound metabolized | Compound NOT metabolized | Compound NOT metabolized | Compound NOT metabolized | Compound NOT metabolized | Compound NOT metabolized | Compound metabolized | Compound metabolized | Compound metabolized | Compound metabolized | Compound metabolized | Bacterial Biotransformation [21]: Compound NOT metabolized; Bacterial Biotransformation [22]: Compound NOT metabolized; Bacterial Biotransformation [23]: Compound NOT metabolized; Bacterial Biotransformation [24]: Compound NOT metabolized; Bacterial Biotransformation [25]: Compound NOT metabolized; Bacterial Biotransformation [26]: Compound NOT metabolized
